What was measured:
Type in all cases: functional
[1] = test system: SF-295; assay: Cytotoxicity against human SF295 cells assessed as growth inhibition after 48 hrs by sulforhodamine B assay; details: SF-295, 48 h
[2] = test system: SK-MEL-28; assay: Cytotoxicity against human SK-MEL-28 cells assessed as growth inhibition after 48 hrs by sulforhodamine B assay; details: SK-MEL-28, 48 h
[3] = test system: MOLT-4; assay: Cytotoxicity against human MOLT4 cells assessed as growth inhibition after 48 hrs by sulforhodamine B assay; details: MOLT-4, 48 h
[4] = test system: NCI-H522; assay: Cytotoxicity against human NCI-H522 cells assessed as growth inhibition after 48 hrs by sulforhodamine B assay; details: NCI-H522, 48 h
[5] = test system: EKVX; assay: Cytotoxicity against human EKVX cells assessed as growth inhibition after 48 hrs by sulforhodamine B assay
[6] = test system: HL-60(TB); assay: Cytotoxicity against human HL-60(TB) cells assessed as growth inhibition after 48 hrs by sulforhodamine B assay; details: HL-60, 48 h
[7] = test system: MCF7; assay: Cytotoxicity against human MCF7 cells assessed as growth inhibition after 48 hrs by sulforhodamine B assay; details: MCF7, 48 h
[8] = test system: TK-10; assay: Cytotoxicity against human TK10 cells assessed as growth inhibition after 48 hrs by sulforhodamine B assay; details: TK-10, 48 h
[9] = test system: SK-MEL-2; assay: Cytotoxicity against human SK-MEL-2 cells assessed as growth inhibition after 48 hrs by sulforhodamine B assay; details: SK-MEL-2, 48 h
[10] = test system: OVCAR-4; assay: Cytotoxicity against human OVCAR4 cells assessed as growth inhibition after 48 hrs by sulforhodamine B assay; details: OVCAR-4, 48 h
[11] = test system: SF-539; assay: Cytotoxicity against human SF539 cells assessed as growth inhibition after 48 hrs by sulforhodamine B assay; details: SF-539, 48 h
[12] = test system: A498; assay: Cytotoxicity against human A498 cells assessed as growth inhibition after 48 hrs by sulforhodamine B assay; details: A498, 48 h
[13] = test system: NCI-H322M; assay: Cytotoxicity against human NCI-H322M cells assessed as growth inhibition after 48 hrs by sulforhodamine B assay
[14] = test system: UO-31; assay: Cytotoxicity against human UO31 cells assessed as growth inhibition after 48 hrs by sulforhodamine B assay; details: UO-31, 48 h
[15] = test system: SNB-19; assay: Cytotoxicity against human SNB19 cells assessed as growth inhibition after 48 hrs by sulforhodamine B assay; details: SNB-19, 48 h
[16] = test system: HT-29; assay: Cytotoxicity against human HT-29 cells assessed as growth inhibition after 48 hrs by sulforhodamine B assay; details: HT-29, 48 h
[17] = test system: SNB-75; assay: Cytotoxicity against human SNB75 cells assessed as growth inhibition after 48 hrs by sulforhodamine B assay; details: SNB-75, 48 h
[18] = test system: Hs-578T; assay: Cytotoxicity against human Hs 578T cells assessed as growth inhibition after 48 hrs by sulforhodamine B assay
[19] = test system: SK-OV-3; assay: Cytotoxicity against human SKOV3 cells assessed as growth inhibition after 48 hrs by sulforhodamine B assay; details: SK-OV-3, 48 h
[20] = test system: NCI-H460; assay: Cytotoxicity against human NCI-H460 cells assessed as growth inhibition after 48 hrs by sulforhodamine B assay; details: NCI-H460, 48 h
[21] = test system: LOX IMVI; assay: Cytotoxicity against human LOXIMVI cells assessed as growth inhibition after 48 hrs by sulforhodamine B assay
[22] = test system: 786-0; assay: Cytotoxicity against human 786-0 cells assessed as growth inhibition after 48 hrs by sulforhodamine B assay; details: 786-0, 48 h
[23] = test system: SF-268; assay: Cytotoxicity against human SF268 cells assessed as growth inhibition after 48 hrs by sulforhodamine B assay; details: SF-268, 48 h
[24] = test system: SN12C; assay: Cytotoxicity against human SN12C cells assessed as growth inhibition after 48 hrs by sulforhodamine B assay
[25] = test system: ACHN; assay: Cytotoxicity against human ACHN cells assessed as growth inhibition after 48 hrs by sulforhodamine B assay
[26] = read-out: LC50 (the source's name)

**Q.** With `O=C1NC2C(CC(O)C(O)C2O)c2cc3c(c(O)c21)OCO3` (racemic) as the compound, how does the GI50 [1] read?
**A.** 115 nM

**Q.** And the TGI [1]?
**A.** 770 nM

**Q.** And the CC50 [1, 26]?
**A.** > 100000 nM

**Q.** And the GI50 [2]?
**A.** 62.9 nM

**Q.** What about the TGI [2] of the same compound?
**A.** 480 nM

**Q.** And the GI50 [3]?
**A.** 63.6 nM

**Q.** What about the CC50 [3, 26] of the same compound?
**A.** > 100000 nM

**Q.** What about the GI50 [4] of the same compound?
**A.** 46.7 nM

**Q.** What about the TGI [4] of the same compound?
**A.** 310 nM

**Q.** And the GI50 [5]?
**A.** 145 nM

**Q.** What about the TGI [5] of the same compound?
**A.** 1060 nM

**Q.** And the CC50 [5, 26]?
**A.** > 100000 nM

**Q.** What about the GI50 [6] of the same compound?
**A.** 60.1 nM

**Q.** What about the TGI [6] of the same compound?
**A.** 260 nM

**Q.** What about the GI50 [7] of the same compound?
**A.** 36.3 nM

**Q.** And the TGI [7]?
**A.** 1230 nM

**Q.** What about the GI50 [8] of the same compound?
**A.** 221 nM

**Q.** And the TGI [8]?
**A.** 1680 nM

**Q.** What about the GI50 [9] of the same compound?
**A.** 56.1 nM

**Q.** What about the TGI [9] of the same compound?
**A.** 250 nM

**Q.** What about the GI50 [10] of the same compound?
**A.** 55.6 nM

**Q.** What about the TGI [10] of the same compound?
**A.** 480 nM

**Q.** What about the GI50 [11] of the same compound?
**A.** 81.9 nM

**Q.** And the TGI [11]?
**A.** 460 nM

**Q.** And the GI50 [12]?
**A.** 200 nM

**Q.** What about the TGI [12] of the same compound?
**A.** 540 nM

**Q.** What about the GI50 [13] of the same compound?
**A.** 49.6 nM

**Q.** What about the TGI [13] of the same compound?
**A.** 480 nM

**Q.** What about the CC50 [13, 26] of the same compound?
**A.** > 100000 nM

**Q.** What about the GI50 [14] of the same compound?
**A.** 100 nM

**Q.** What about the TGI [14] of the same compound?
**A.** 1090 nM

**Q.** And the GI50 [15]?
**A.** 46.6 nM

**Q.** What about the TGI [15] of the same compound?
**A.** 690 nM

**Q.** What about the GI50 [16] of the same compound?
**A.** 89.6 nM

**Q.** What about the TGI [16] of the same compound?
**A.** 1000 nM

**Q.** And the GI50 [17]?
**A.** 75.4 nM

**Q.** And the TGI [17]?
**A.** 620 nM

**Q.** What about the CC50 [17, 26] of the same compound?
**A.** 13200 nM

**Q.** What about the GI50 [18] of the same compound?
**A.** 76.1 nM

**Q.** What about the TGI [18] of the same compound?
**A.** 510 nM

**Q.** What about the GI50 [19] of the same compound?
**A.** 94.9 nM

**Q.** What about the TGI [19] of the same compound?
**A.** 1040 nM

**Q.** What about the CC50 [19, 26] of the same compound?
**A.** > 100000 nM

**Q.** And the GI50 [20]?
**A.** 43.3 nM

**Q.** What about the TGI [20] of the same compound?
**A.** 490 nM

**Q.** What about the GI50 [21] of the same compound?
**A.** 33.6 nM

**Q.** What about the TGI [21] of the same compound?
**A.** 170 nM

**Q.** And the GI50 [22]?
**A.** 151 nM

**Q.** And the TGI [22]?
**A.** 1290 nM

**Q.** And the GI50 [23]?
**A.** 127 nM

**Q.** What about the TGI [23] of the same compound?
**A.** 800 nM

**Q.** What about the GI50 [24] of the same compound?
**A.** 69.3 nM

**Q.** What about the TGI [24] of the same compound?
**A.** 800 nM

**Q.** And the CC50 [24, 26]?
**A.** > 100000 nM

**Q.** And the GI50 [25]?
**A.** 97.9 nM

**Q.** What about the TGI [25] of the same compound?
**A.** 750 nM

Source: ChEMBL document CHEMBL4346705, “(±)-trans-Dihydronarciclasine and (±)-trans-dihydrolycoricidine analogues modified in their ring A: Evaluation of their anticancer activity and a SAR study” (2019)
